Among the test systems are A549; CAKI-1; HT-29; K562; MOLT-4; NCI-H226; NCI-H23; NCI-H460; NCI-H522; OVCAR-5; OVCAR-8; SF-295; SK-MEL-28; SN12C; SNB-75; SW-620; U-251; UACC-257; UO-31; DMS-273.
Test in all cases: growth of human tumour cells (NCI), 48 h

Each structure is given as a SMILES string.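 Following 48 hours of exposure in 96-well plates, responses at five concentrations were used to interpolate endpoints linearly. The concentration for 50% growth inhibition is given as GI50.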 The source made the active and inactive calls. No stated cut-off is given here; in the data, active = GI50 up to about 1.1 µM and inactive = higher.

As to `CC(=O)Nc1ccc2[nH]c(C(=O)N3CC(CCl)c4c3cc(N)c3ccccc43)cc2c1` (stereo not given), the GI50 with A549 was 0.0128 µM (active); in the experiment with CAKI-1, 0.0129 µM (active); in the experiment on HT-29, < 0.0127 µM (active); in the experiment on K562, < 0.0163 µM (active); in the experiment with MOLT-4 it was < 0.0115 µM (active); with NCI-H226, < 0.0135 µM (active). Moreover, the GI50 with NCI-H23 is 0.0102 µM (active); with NCI-H460, < 0.01 µM (active); with NCI-H522 it was < 0.01 µM (active); with OVCAR-5, < 0.0179 µM (active); in the experiment on OVCAR-8, < 0.0133 µM (active); with SF-295 it was 0.0135 µM (active). The GI50 with SK-MEL-28 is 0.0161 µM (active); with SN12C, 0.0118 µM (active); in the experiment on SNB-75, < 0.01 µM (active); in the experiment on SW-620, 0.0118 µM (active); in the experiment with U-251, 0.0143 µM (active); with UACC-257, 0.0172 µM (active). The GI50 in the experiment on UO-31 is 0.014 µM (active).
Regarding `C=CCn1c(=O)c(Br)nn(CCOCP(=O)(OCC)OCC)c1=O`, the GI50 in the experiment on A549, in the experiment with CAKI-1, in the experiment with K562, with MOLT-4, with NCI-H226 and in the experiment with NCI-H23 was > 100 µM (inactive) throughout. Also, the GI50 in the experiment on NCI-H460, in the experiment with NCI-H522, in the experiment on OVCAR-5, in the experiment on OVCAR-8, with SK-MEL-28 and in the experiment on SN12C was > 100 µM (inactive) throughout. Besides, the GI50 in the experiment on SNB-75, in the experiment on SW-620, in the experiment with U-251, in the experiment with UACC-257 and in the experiment on UO-31 was > 100 µM (inactive) in each case.
Turning to `NC(Cc1ccccc1)C(=O)N[C@H]1c2ccsc2/C(=N/O)[C@H]1O` (stereo not given in full), the GI50 in the experiment with A549 is > 100 µM (inactive); in the experiment with CAKI-1, > 100 µM (inactive); in the experiment with HT-29, > 100 µM (inactive); with K562, > 100 µM (inactive); with MOLT-4, > 10 µM (inactive); in the experiment on NCI-H226, > 100 µM (inactive). The GI50 with NCI-H23, with NCI-H460, in the experiment on OVCAR-5, in the experiment with OVCAR-8, in the experiment on SF-295 and in the experiment with SK-MEL-28 was > 100 µM (inactive) in each case. Moreover, the GI50 in the experiment on SN12C is > 100 µM (inactive); in the experiment with SW-620, > 100 µM (inactive); with U-251, > 100 µM (inactive); in the experiment with UACC-257 it was > 100 µM (inactive); with UO-31, 25.6 µM (inactive).
For the compound `O=[PH](O)c1cccs1`, the GI50 with A549, with CAKI-1, in the experiment on DMS-273, with HT-29, in the experiment on K562 and with MOLT-4 was > 100 µM (inactive) in each case. In addition, the GI50 in the experiment with NCI-H23, with NCI-H460, in the experiment on NCI-H522, in the experiment on OVCAR-8, with SF-295 and with SK-MEL-28 was > 100 µM (inactive) throughout. Also, the GI50 with SN12C, in the experiment with SW-620, in the experiment on U-251 and in the experiment with UO-31 was > 100 µM (inactive) each time.
For the compound `COc1ccc(N2CN(C)CSC2=S)cc1`, the GI50 with A549 is > 100 µM (inactive); in the experiment on CAKI-1 it was > 100 µM (inactive); with HT-29, > 100 µM (inactive); in the experiment on K562, 21.1 µM (inactive); in the experiment with MOLT-4, 76.7 µM (inactive); with NCI-H23 it was > 100 µM (inactive). The GI50 is 76 µM (inactive) with NCI-H460; 29.7 µM (inactive) in the experiment on NCI-H522; 71.9 µM (inactive) in the experiment with OVCAR-5; > 100 µM (inactive) in the experiment with OVCAR-8; 23.4 µM (inactive) in the experiment on SF-295; > 100 µM (inactive) with SK-MEL-28. Also, the GI50 is > 100 µM (inactive) in the experiment with SN12C; > 100 µM (inactive) with SNB-75; 43 µM (inactive) with SW-620; > 100 µM (inactive) with U-251; > 100 µM (inactive) with UACC-257; > 100 µM (inactive) with UO-31.
With `CO/N=C1/c2sccc2[C@H](NC(=O)C(F)(F)F)[C@@H]1O`, the GI50 with A549, in the experiment with CAKI-1, with HT-29, with K562, with MOLT-4 and in the experiment with NCI-H226 was > 100 µM (inactive) throughout. In addition, the GI50 with NCI-H23, with NCI-H460, in the experiment on OVCAR-5, in the experiment with OVCAR-8, in the experiment with SF-295 and in the experiment with SK-MEL-28 was > 100 µM (inactive) in each case. In addition, the GI50 with SN12C, with SNB-75, in the experiment with SW-620, with U-251, in the experiment with UACC-257 and in the experiment with UO-31 was > 100 µM (inactive) each time.
As for `Cc1ccc(S(=O)(=O)NCCCSCCSCCCN)cc1`, the GI50 in the experiment with A549, in the experiment with HT-29, in the experiment with K562, with MOLT-4, with NCI-H226 and in the experiment with NCI-H23 was > 100 µM (inactive) in each case. Also, the GI50 with NCI-H460, with NCI-H522, in the experiment on OVCAR-8, in the experiment on SF-295, in the experiment with SK-MEL-28 and with SN12C was > 100 µM (inactive) throughout. Also, the GI50 in the experiment with SNB-75, in the experiment on SW-620, in the experiment on U-251, in the experiment with UACC-257 and in the experiment on UO-31 was > 100 µM (inactive) throughout.
In the case of `COC(=O)Cc1c(-c2c(CC(=O)OC)c3ccccc3n2C2OC(COC(C)=O)C(OC(C)=O)C(OC(C)=O)C2OC(C)=O)[nH]c2ccccc12` (stereo not given), the GI50 with A549, in the experiment on CAKI-1, in the experiment with HT-29, with MOLT-4, in the experiment with NCI-H23 and in the experiment on NCI-H460 was > 100 µM (inactive) in each case. Also, the GI50 was 52 µM (inactive) in the experiment with NCI-H522; > 100 µM (inactive) with OVCAR-5; 90.8 µM (inactive) in the experiment on SF-295; > 100 µM (inactive) with SK-MEL-28; > 100 µM (inactive) in the experiment on SN12C; > 100 µM (inactive) in the experiment with SW-620. The GI50 with U-251, with UACC-257 and with UO-31 was > 100 µM (inactive) each time.
For `CCCOC1OC(CS(=O)(=O)O)C(OC(C)=O)C(OC(C)=O)C1OC(C)=O` (stereo not given), the GI50 in the experiment on CAKI-1, in the experiment with HT-29, with K562, in the experiment on MOLT-4, in the experiment with NCI-H226 and in the experiment on NCI-H23 was > 100 µM (inactive) in each case. Also, the GI50 in the experiment on NCI-H460, in the experiment with OVCAR-5, in the experiment with OVCAR-8, with SF-295, with SK-MEL-28 and in the experiment with SN12C was > 100 µM (inactive) each time. Further, the GI50 in the experiment with SNB-75, in the experiment on SW-620, in the experiment with U-251, in the experiment on UACC-257 and with UO-31 was > 100 µM (inactive) in each case.
Consider `O=C1N[C@@H]2C(=C[C@H](O)[C@@H](O)[C@H]2O)c2cc3c(c(O)c21)OCO3` [NARCICLASINE], for which the GI50 in the experiment on A549, in the experiment with CAKI-1, in the experiment on DMS-273, with HT-29, with K562 and in the experiment on MOLT-4 was 0.045 µM (active) throughout. Besides, the GI50 in the experiment with NCI-H226 was 0.045 µM (active); in the experiment with NCI-H23, 0.045 µM (active); in the experiment with NCI-H460, 0.045 µM (active); in the experiment on OVCAR-5, 0.0632 µM (active); in the experiment on OVCAR-8, 0.045 µM (active); in the experiment with SF-295, 0.0634 µM (active). Moreover, the GI50 in the experiment on SK-MEL-28, in the experiment on SN12C, in the experiment on SNB-75, with SW-620, in the experiment with U-251 and with UACC-257 was 0.045 µM (active) in each case. In addition, the GI50 with UO-31 was 0.045 µM (active).
For `Oc1ccc(/C=C/c2cc(O)cc(O)c2)cc1` [RESVERATROL], the GI50 with A549 was 51.6 µM (inactive); with CAKI-1, 42.2 µM (inactive); in the experiment with HT-29 it was 24.3 µM (inactive); with MOLT-4, 7.23 µM (inactive); with NCI-H226, 39.9 µM (inactive); with NCI-H23 it was 46 µM (inactive). Moreover, the GI50 was 42.1 µM (inactive) in the experiment with NCI-H460; > 100 µM (inactive) with OVCAR-5; 48.8 µM (inactive) in the experiment on OVCAR-8; 44 µM (inactive) in the experiment with SF-295; > 100 µM (inactive) in the experiment with SK-MEL-28; 42.8 µM (inactive) in the experiment on SN12C. Also, the GI50 with SNB-75 was 95.1 µM (inactive); with SW-620, > 100 µM (inactive); in the experiment with U-251, > 100 µM (inactive); with UACC-257 it was > 100 µM (inactive); in the experiment on UO-31 it was 35.7 µM (inactive).

The record behind these values is ChEMBL document CHEMBL1201862, “PubChem BioAssay data set” (2004).
